ChEMBL document CHEMBL1133241, “Phenylacetamides as selective alpha-1A adrenergic receptor antagonists” (Bioorg Med Chem Lett, 2000)

Legend:
[1] = molecular target: T1, Alpha-1D adrenergic receptor (Homo sapiens, UniProt P25100); assay: Inhibition of binding of [125I]HEAT to cloned human alpha-1D adrenergic receptor.
T1 sequence (P25100 whole entry): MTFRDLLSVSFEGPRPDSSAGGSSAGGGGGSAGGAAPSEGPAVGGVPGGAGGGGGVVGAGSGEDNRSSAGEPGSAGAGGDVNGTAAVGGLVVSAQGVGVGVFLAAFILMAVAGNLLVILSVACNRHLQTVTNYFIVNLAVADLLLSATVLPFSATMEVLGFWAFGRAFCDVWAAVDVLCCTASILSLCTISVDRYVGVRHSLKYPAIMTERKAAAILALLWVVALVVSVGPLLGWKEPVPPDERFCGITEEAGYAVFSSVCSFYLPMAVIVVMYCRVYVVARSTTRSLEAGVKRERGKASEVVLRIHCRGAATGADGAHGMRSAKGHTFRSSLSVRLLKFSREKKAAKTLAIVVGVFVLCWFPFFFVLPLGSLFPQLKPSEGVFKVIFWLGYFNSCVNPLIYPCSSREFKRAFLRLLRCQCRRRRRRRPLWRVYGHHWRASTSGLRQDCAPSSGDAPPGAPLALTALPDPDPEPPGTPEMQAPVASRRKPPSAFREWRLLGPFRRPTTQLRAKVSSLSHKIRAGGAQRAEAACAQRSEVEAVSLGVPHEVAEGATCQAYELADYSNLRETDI

[2] = molecular target: T2, Alpha-1A adrenergic receptor (Homo sapiens, UniProt P35348); assay: Inhibition of binding of [125I]HEAT to cloned human alpha-1A adrenergic receptor.
T2 sequence (P35348 whole entry): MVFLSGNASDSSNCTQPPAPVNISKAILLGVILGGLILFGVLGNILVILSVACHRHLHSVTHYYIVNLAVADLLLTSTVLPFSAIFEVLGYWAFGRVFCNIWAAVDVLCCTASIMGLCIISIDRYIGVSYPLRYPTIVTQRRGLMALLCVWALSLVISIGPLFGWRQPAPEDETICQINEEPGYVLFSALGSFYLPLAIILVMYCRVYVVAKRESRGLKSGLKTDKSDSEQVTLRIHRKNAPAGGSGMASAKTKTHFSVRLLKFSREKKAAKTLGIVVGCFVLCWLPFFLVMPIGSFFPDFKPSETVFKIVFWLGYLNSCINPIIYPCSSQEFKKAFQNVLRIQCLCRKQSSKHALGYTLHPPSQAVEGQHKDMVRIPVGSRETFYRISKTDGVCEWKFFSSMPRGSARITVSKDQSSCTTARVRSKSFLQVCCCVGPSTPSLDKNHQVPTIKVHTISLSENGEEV

[3] = molecular target: T3, Alpha-1B adrenergic receptor (Homo sapiens, UniProt P35368); assay: Inhibition of binding of [125I]HEAT to cloned human alpha-1B adrenergic receptor.
T3 sequence (P35368 whole entry): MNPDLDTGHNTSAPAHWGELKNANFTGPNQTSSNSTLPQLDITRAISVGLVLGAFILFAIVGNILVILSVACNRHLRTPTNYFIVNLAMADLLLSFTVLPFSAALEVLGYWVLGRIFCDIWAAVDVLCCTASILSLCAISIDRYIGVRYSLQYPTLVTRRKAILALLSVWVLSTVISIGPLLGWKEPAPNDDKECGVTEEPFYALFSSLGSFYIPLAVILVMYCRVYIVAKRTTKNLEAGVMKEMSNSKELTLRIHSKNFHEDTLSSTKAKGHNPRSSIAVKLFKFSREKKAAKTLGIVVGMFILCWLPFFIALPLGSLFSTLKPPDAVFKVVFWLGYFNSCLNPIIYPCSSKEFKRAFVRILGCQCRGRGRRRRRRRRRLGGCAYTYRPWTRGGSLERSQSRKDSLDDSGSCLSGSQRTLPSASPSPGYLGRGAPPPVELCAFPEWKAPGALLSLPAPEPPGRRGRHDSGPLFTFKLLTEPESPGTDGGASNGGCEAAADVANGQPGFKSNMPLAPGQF

| SMILES | Ki [1] | Ki [2] | Ki [3] |
| --- | --- | --- | --- |
| Cc1ccccc1C1(C#N)CCN(CCCNC(=O)C(c2ccc(Cl)cc2)C(C)C)CC1 (stereo not given) | 1300 nM | 6.4 nM | 870 nM |
| Cc1ccc(C(C(=O)NCCCN2CCC(c3ccccn3)CC2)c2ccc(C)cc2)cc1 | 3600 nM | 27 nM | 670 nM |
| Cc1ccc(C(C(=O)NCCCN2CCC(c3ccccc3)CC2)c2ccc(C)cc2)cc1 | 230 nM | 8.8 nM | 34 nM |
| N#CC1(c2ccccc2)CCN(CCCNC(=O)C(c2ccccc2)c2ccccc2)CC1 | 3300 nM | 28 nM | 840 nM |
| Cc1ccc(C(C(=O)NCCCN2CCC(C#N)(c3ccccc3C)CC2)C(C)C)cc1 (stereo not given) | 1100 nM | 7.4 nM | 650 nM |
| Cc1ccc(C(C(=O)NCCCN2CCC(C#N)(c3ccccc3C)CC2)c2ccc(C)cc2)cc1 | 1100 nM | 1.3 nM | 360 nM |
| Cc1ccc(C(C(=O)NCCCN2CCN(c3ccccc3C)CC2)c2ccc(C)cc2)cc1 | 36 nM | 1.1 nM | 6.6 nM |
| COC(=O)C1(c2ccccc2)CCN(CCCNC(=O)C(c2ccc(C)cc2)c2ccc(C)cc2)CC1 | 960 nM | 5.1 nM | 450 nM |
| Cc1ccccc1C1(C#N)CCN(CCCNC(=O)C(c2ccc(F)cc2)C(C)C)CC1 (stereo not given) | 2400 nM | 24 nM | 960 nM |
| COC(=O)C1(c2ccccc2)CCN(CCNC(=O)CCc2ccc([N+](=O)[O-])cc2)CC1 | 1500 nM | 380 nM | > 3000 nM |
| COC(=O)C1(c2ccccc2)CCN(CCCNC(=O)CCc2ccc([N+](=O)[O-])cc2)CC1 | 1300 nM | 240 nM | 910 nM |
| COc1ccccc1C1(C#N)CCN(CCCNC(=O)C(c2ccc(C)cc2)c2ccc(C)cc2)CC1 | 710 nM | 7.5 nM | 570 nM |
| Cc1ccccc1C1(C#N)CCN(CCCNC(=O)C(c2cccc(F)c2)C(C)C)CC1 (stereo not given) | 2700 nM | 3.4 nM | 680 nM |
| Cc1ccc(C(C(=O)NCCCN2CCC(C#N)(c3ccccc3C(F)(F)F)CC2)c2ccc(C)cc2)cc1 | 3200 nM | 22 nM | 1900 nM |
| Cc1ccc(C(C(=O)NCCCN2CCC(C#N)(c3ccccn3)CC2)c2ccc(C)cc2)cc1 | > 5000 nM | 25 nM | > 2000 nM |
| Cc1ccc(C(C(=O)NCCCN2CCN(c3ccccc3)CC2)c2ccc(C)cc2)cc1 | 128 nM | 12 nM | 23 nM |
| COC(=O)C1(c2ccccc2)CCN(CCCNC(=O)Cc2ccc([N+](=O)[O-])cc2)CC1 | 6300 nM | 75 nM | 3300 nM |
| COC(=O)C1(c2ccccc2)CCN(CCCNC(=O)Cc2ccc(C)cc2)CC1 | 3400 nM | 74 nM | > 3000 nM |
| Cc1ccc(C(C(=O)NCCCN2CCC(C#N)(c3ccccc3)CC2)c2ccc(C)cc2)cc1 | 1400 nM | 7.3 nM | > 2000 nM |
| Cc1ccc(C(C(=O)NCCCN2CCC(C(N)=O)(c3ccccc3)CC2)c2ccc(C)cc2)cc1 | 3300 nM | 570 nM | 570 nM |
| Cc1ccc(C(C(=O)NCCCN2CCC(C#N)(c3ccccc3Cl)CC2)c2ccc(C)cc2)cc1 | 600 nM | 0.99 nM | 280 nM |
| COC(=O)C1(c2ccccc2)CCN(CCCNC(=O)C(C)c2ccc([N+](=O)[O-])cc2)CC1 (stereo not given) | 1700 nM | 47 nM | 1700 nM |
| N#CC1(c2ccccc2)CCN(CCCNC(=O)C(c2ccccc2)C2CCCCC2)CC1 (racemic) | 2500 nM | 61 nM | 1100 nM |
| N#CC1(c2ccccc2)CCN(CCCNC(=O)C(c2ccccc2)C2CCCC2)CC1 (racemic) | 2300 nM | 50 nM | 2000 nM |
| COC(=O)C1(c2ccccc2)CCN(CCCNC(=O)C2=C(C)N=C(C)/C(=C(/O)OC)C2c2ccc([N+](=O)[O-])cc2)CC1 (racemic) | 1100 nM | – | – |
| CC(C)C(C(=O)NCCCN1CCC(C#N)(c2ccccc2)CC1)c1ccccc1 (racemic) | 2900 nM | 72 nM | 1200 nM |
| Cc1ccccc1C1(C#N)CCN(CCCNC(=O)C(c2ccc(F)c(F)c2)C(C)C)CC1 (single isomer, unassigned; (+)) | 2100 nM | 2 nM | 1400 nM |
| Cc1ccccc1C1(C#N)CCN(CCCNC(=O)C(c2ccc(F)c(F)c2)C(C)C)CC1 (single isomer, unassigned; (-)) | 2600 nM | 50 nM | 1200 nM |
| Cc1ccccc1C1(C#N)CCN(CCCNC(=O)C(c2ccc(F)c(F)c2)C(C)C)CC1 (stereo in doubt; 28) | 1600 nM | 2 nM | 900 nM |
